From publication PMC11500415, “Chemical inhibition of stomatal differentiation by perturbation of the master-regulatory bHLH heterodimer via an ACT-Like domain” (Nature Communications, 2024)

Experiments:
[1] = Stability with acid or base in organic solvent; assay type: physicochemical; conditions: 1,2-dichloroethane, 40 °C, 3 h
Excerpt: To examine the stability of Stomidazolone and identify any degraded products (if unstable), we treated Stomidazolone with an acid or a base. […] The major degraded product under basic conditions was isolated with gel-permeation chromatography (GPC) in 48% yield. The product, which we designated as lzx103 (compound 4), was identified as (phenylsulfonyl)benzimidamide[39] through ^1H and ^13C NMR analyses (Supplementary Fig. 3a, Supplementary Data 1). […]
show any biological activity on stomatal development (see Revised Fig. S3), thus ruling out the possibility that the inhibition of stomatal differentiation is attributable to the degradation product rather than Stomidzaolone itself. The yield of Izx103 was determined through isolation. Please see the schematics below (presented as Fig. S3). These new findings are described in detail in our Revised Results section (see Page 6 "Stability of […]
with CH COOH (3.1 equiv.) HN […]
with NaOH (3.1 equiv.) NH2 […]
The authors should also provide a better 13C NMR spectrum of the compound in the SI, the current copy features rather weak signal intensities and some signals can only be suspected.
We re-synthesized Stomidazolone and substituted with a better 13C NMR spectrum of Stomidazolone in our revised Document S1. Thank you.
Finally, it should be mentioned in the MS right from the beginning that the compound is a racemic mixture (see also point 2 for this).
We sincerely appreciate Reviewer 2 for raising an important point. Please see our […]
observed effects are caused by Stomidazolone-mediated modulation of MUTE function. The authors use SIM1 during the plant assays which is however not an optimal control as it is not […]
in the biochemical assays, while active compounds are in contrast active in both assay types.
An almost optimal control for these phenotypic and biochemical assays in my view are the two enantiomers of Stomidazolone. […]

MUTE bHLH domain = target: T1, MUTE bHLH domain (Arabidopsis thaliana, UniProt Q9M8K6); assay: BLI direct binding; set-up: species or system A. thaliana; conditions: for Response: BLI, GST-MUTE_bHLH on Anti-GST sensor, unit assumed
T1 construct: MUTEΔC (1-114); made in house; host or cells: E. coli BL21
T1 sequence (Q9M8K6 1-114): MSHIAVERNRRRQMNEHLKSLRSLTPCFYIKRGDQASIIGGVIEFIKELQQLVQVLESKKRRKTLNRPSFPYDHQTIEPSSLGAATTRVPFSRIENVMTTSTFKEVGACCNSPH
Excerpt: A. thaliana SCRM (1-494), ΔNSPCH (98-364), MUTE (1-202), ΔNFAMA (190-414), MUTEΔC (1-114), MUTER133A_R134A, MUTEE162A_E163A, MUTER133A_R134A_E162A_E163A, SCRM-ACTL (405-494), MUTE-ACTL (114-202), SPCH-ACTL (285-364), FAMA-ACTL (306-414), MUTE_ACTLR133A_R134A, MUTE_ACTLE162A_E163A, MUTE_ACTLR133A_R134A_E162A_E163A were cloned into pGEX-4T-1 vector with an N-terminal GST tag and a thrombin cleavage sequence. For protein expression, the constructs were transformed into E. coli strain BL21. For each transformant, a single colony was selected and incubated in 10 ml LB liquid media. The overnight-incubated E. coli suspensions were transferred to 1 L LB medium and incubated at 37 °C for around 2 h until the OD600 reached 0.4–0.6. The isopropyl β-D-1-thiogalactopyranoside ([…] of final concentration) was added to the cultures and the strains were incubated at 22 °C for a further 18 h. GST-fused proteins were purified using glutathione agarose resin. The soluble portion of the cell lysate was loaded onto a GST-Sepharose column. Nonspecifically bound proteins were removed by washing the column with 20 mM Tris pH 8.0, 200 mM NaCl. The bound GST-fused protein was eluted with 10 mm glutathione and 20 mM Tris pH 8.0, 200 mM NaCl. The GST-fused proteins were exchanged with phosphate-buffered saline buffer, and then the solution was treated with 50 μg of thrombin for 10–12 h at 16 ^οC. The GST portion of the protein was cleaved during thrombin digestion, and then the whole solution was reloaded onto the glutathione S-transferase column to obtain pure protein. The purified proteins were further purified by gel filtration on a Superdex-200 (GE) column using fast protein liquid chromatography and phosphate buffer (pH 7.2) as the eluent. The purity of the protein was checked by SDS-PAGE. For detailed lists of oligo DNA and plasmid information, see Supplementary Tables 5, 6, respectively.
The binding affinities of SCRM to MUTE / MUTER133A_R134A / MUTEE162A_E163A / MUTER133A_R134A_E162A_E163A in presence and absence of Stomidazolone (3) and its analogues (AYSJ1059 (5) and AYSJ1061 (6)), and Stomidazolone / AYSJ1059 / AYSJ1061 interactions with GST-tagged SCRM, MUTE, SPCH, FAMA, MUTE ΔACTL, MUTE_ACTL, SCRM_ACTL, SPCH_ACTL and FAMA_ACTL, MUTER133A_134A, MUTEE162A_E163A, MUTER133A_R134A_E162A_E163A were measured using the Octet Red96 system (ForteBio, Pall Life Sciences) following the manufacturer’s protocols. The optical probes coated with anti-GST were first loaded with 500 nM GST tagged proteins before kinetic binding analyses. The experiment was performed in 96-well plates maintained at 30 °C. Each well was loaded with 200 μL reaction volume for the experiment. The binding buffer used in these experiments contained 1× PBS supplemented with 2% DMSO, 0.02% Tween20. The concentrations of the Stomidazolone as the analyte in the binding buffer were 100, 50, 25, 12.5, 6.25, 3.12, and 1.56 μM. There was no binding of the analytes to the unloaded probes as shown by the control wells. Binding kinetics to all seven concentrations of the analytes were measured simultaneously using default parameters on the instrument. The data were analyzed using the Octet data analysis software. The association and dissociation curves were fit with the 1:1 homogeneous ligand model. The kobs (observed rate constant) values were used to calculate Kd, with steady-state analysis of the direct binding. See Supplementary Table 3 for details.

## O=C1C(c2ccccc2)=NC(NS(=O)(=O)c2ccccc2)(c2ccccc2)N1S(=O)(=O)c1ccccc1 (stereo not shown) [Stomidazolone]
[1]; 3 equiv. of acetic acid
  stability under acidic conditions: stable
[1]; 3 equiv. of sodium hydroxide
  stability under basic conditions: completely degraded
[1]; CH3COOH (3.1 equiv.)
  recovered by 1H NMR analysis: 93%
MUTE bHLH domain; BLI (Fig. 6h)
  binding to MUTE bHLH versus ACTL domain (in words): specifically binds to the ACTL domain
MUTE bHLH domain; Stomid Conc. (nM) 6.25
  Response: 0.0607 nm
MUTE bHLH domain; Stomid Conc. (nM) 12.5
  Response: 0.0612 nm
MUTE bHLH domain; Stomid Conc. (nM) 25
  Response: 0.0712 nm
MUTE bHLH domain; Stomid Conc. (nM) 50
  Response: 0.0833 nm
MUTE bHLH domain; Stomid Conc. (nM) 100
  Response: 0.0921 nm
MUTE bHLH domain; Stomid Conc. (nM) 200
  Response: 0.106 nm
